# Test results from patent US20090076140A1, “PHARMACEUTICAL COMPOSITIONS CONTAINING SULPHONIC ACID DERIVATIVES” (ITALFARMACO, S. A., priority 2003, published 2009).
# Experiments:
# C6 glioma cells = experiment: angiogenesis and tumor growth inhibition, C6 glioma cells implanted in rat brain; type: in vivo, rats
# Procedure: A test similar to the one described in Example 3.1 was performed with rats, implanting the C6 glioma cells in the caudal area of the brain and the osmotic micropump in the back of the rats. A catheter led the treatment solution that contained the C-9 compound or the saline solution to the area of the glioma implant. Coronal sections of the brain of the rats thus treated were obtained and compared with coronal sections of the brain of untreated rats. The analysis was done by means of NMR spectroscopy imaging.
# bFGF = bFGF (Homo sapiens, UniProt P09038); experiment: angiogenesis inhibition test in mice with aFGF substituted with bFGF; type: in vivo; conditions: data not shown
# bFGF, sequence (P09038 143-288, species assumed): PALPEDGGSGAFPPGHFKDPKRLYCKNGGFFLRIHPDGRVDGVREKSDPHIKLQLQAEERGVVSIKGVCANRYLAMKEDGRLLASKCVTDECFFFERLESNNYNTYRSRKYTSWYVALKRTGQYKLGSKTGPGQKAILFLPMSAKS
# glioma C6 cells = experiment: angiogenesis and tumor growth inhibition, glioma C6 cells implanted in rabbit cornea; type: in vivo, Albino New Zealand rabbits
# Procedure: Albino New Zealand rabbits (3±0.5 kg, male and female in equal numbers) were used and were implanted with 5 μL of a glioma C6 cell suspension [ATCC CCL-107] subepithelially injected into the cornea with a 10 μL Hamilton syringe using a surgical microscope. The injection is located at 2 mm from the limbal margin of the cornea. At the same time, an osmotic minipump was subcutaneously implanted in the neck region for the purpose of assuring continuous infusion of the compound to be tested (C-9) or of a saline solution (control). A catheter guided the solution to the sclera at a constant rate of 0.2 mg/h. It is thus calculated that a concentration of about 0.003 mg/mL of the compound to be tested or saline solution is maintained in the cornea. Treatment was maintained for 14 days. The corneas were eliminated at the end of each experiment and at fixed intervals after each treatment and processed for histological examination.
# [1] = toxicity observations in the mouse angiogenesis test; type: in vivo; conditions: highest tested concentrations
# Procedure: (§1) Pathogen-free C57/BI/6 mice (Charles River, Spain) weighing 25±4 g were used. The animals were kept in plastic cages under controlled temperature and humidity conditions; they had water and food ad libitum and a schedule of 12 hours of daylight and darkness was maintained. The guidelines on animal welfare of the NIH and the European Union were followed meticulously.
# 10 mm long sterile gelatin sponge cubes (Curaspon Dental, Clinimed Holding, Zwanenburg, Holland) were subcutaneously implanted in the backs of the mice after inducing intraperitoneal anesthesia [Cuevas, P. et al. (1999) Neurol. Res. 21, 191-194]. The animals were distributed into 2 groups: Group A (n=10): formed by animals in which sponges loaded with 200 μL of phosphate buffered saline (PBS) containing 29 μg/mL of heparin were implanted; and Group B (n=40): formed by animals in which sponges soaked with the same solution as that of Group A but containing 10 μg/mL of aFGF were implanted. The skin was sutured after implanting the sponge in the subcutaneous bursa. The mice in Group B were randomly divided into four groups (n=10) that received 0.008, 0.08, 0.8 and 8 mg/kg of compound C-9, respectively, by means of intraperitoneal injection of 200 μL of PBS 24 hours after surgical treatment [Pesenti, E. et al. (1992) Brit. J. Cancer 66, 367-372; Cuevas, P. et al. (1999) Neurol. Res. 21, 191-194]. […]
# [2] = test system: quiescent fibroblasts (Balb/c 3T3); experiment: toxicity analysis for quiescent fibroblasts (culture in the absence of aFGF); type: cell-based; conditions: for toxicity for quiescent fibroblasts: within the concentration range tested / in which aFGF mitogenic activity is inhibited
# aFGF [3] = target: T1, aFGF (Homo sapiens, UniProt P05230); experiment: angiogenesis inhibition test in mice (aFGF-soaked gelatin sponge implants); type: in vivo
# Procedure: A standard angiogenesis test was performed with mice in order to evaluate the C-9 compound as an angiogenesis inhibitor.
# as §1
# Target sequence in this assay (P05230 whole entry, species assumed): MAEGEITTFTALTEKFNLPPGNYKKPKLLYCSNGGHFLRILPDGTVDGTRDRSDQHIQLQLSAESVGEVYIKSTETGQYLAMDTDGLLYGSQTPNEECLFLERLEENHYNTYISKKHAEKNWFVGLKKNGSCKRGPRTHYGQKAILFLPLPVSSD
# 10 mm long sterile gelatin sponge cubes (Curaspon Dental, Clinimed Holding, Zwanenburg, Holland) were subcutaneously implanted in the backs of the mice after inducing intraperitoneal anesthesia [Cuevas, P. et al. (1999) Neurol. Res. 21, 191-194]. The animals were distributed into 2 groups: Group A (n=10): formed by animals in which sponges loaded with 200 μL of phosphate buffered saline (PBS) containing 29 μg/mL of heparin were implanted; and Group B (n=40): formed by animals in which sponges soaked with the same solution as that of Group A but containing 10 μg/mL of aFGF were implanted. The skin was sutured after implanting the sponge in the subcutaneous bursa. The mice in Group B were randomly divided into four groups (n=10) that received 0.008, 0.08, 0.8 and 8 mg/kg of compound C-9, respectively, by means of intraperitoneal injection of 200 μL of PBS 24 hours after surgical treatment [Pesenti, E. et al. (1992) Brit. J. Cancer 66, 367-372; Cuevas, P. et al. (1999) Neurol. Res. 21, 191-194]. All the procedures were performed under sterile conditions.
# In order to evaluate angiogenesis, the mice were again anesthetized as previously described, and the sponges were surgically extracted, which were treated to perform histological studies by means of conventional methods [Cuevas, P. et al. (1999) Neurol. Res. 21, 191-194] 7 days after the implants. Neovascularization was quantified by means of a morphometric computer program connected to a microscope. The growth of new vessels inside the sponges was evaluated by means of the measurement of the surface area containing erythrocytes. Neovascularization was analyzed in 4 predetermined visual fields of 3 different sections at a magnification of 10. The statistical analyses were performed using Student's t-Test.
# aFGF [4] = target: T1, aFGF; experiment: aFGF-induced mitogenesis inhibition test on fibroblasts in culture; type: cell-based; design: the aFGF of 139 amino acid residues
# Target sequence in this assay (P05230 16-155 limits assumed): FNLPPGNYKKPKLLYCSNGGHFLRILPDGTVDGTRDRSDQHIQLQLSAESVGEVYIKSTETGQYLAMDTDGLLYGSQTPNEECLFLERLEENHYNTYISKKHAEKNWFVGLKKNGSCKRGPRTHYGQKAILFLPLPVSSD
# aFGF [5] = target: T1, aFGF; conditions: literature (Pesenti et al.; Cuevas et al.); cited from earlier work
# Target sequence in this assay (P05230 whole entry, species assumed): as the sequence (P05230 whole entry, species assumed) above
# aFGF [6] = target: T1, aFGF; conditions: in vitro and in vivo; cited from earlier work
# Target sequence in this assay (P05230 whole entry, species assumed): as above
# aFGF [7] = target: T1, aFGF; design: the aFGF of 139 amino acid residues; conditions: Lozano et al. (1998); cited from earlier work
# Target sequence in this assay (P05230 16-155 limits assumed): as the sequence (P05230 16-155 limits assumed) above
smiles,measurement,setting,value
"Nc1cccc2cc(S(=O)(=O)[O-])ccc12.[Na+] [Compound C-9, sodium 5-amino-2-naphthalenesulfonate]",tumor mass,C6 glioma cells; NMR imaging of coronal brain sections vs untreated rats,significantly decreased
same,intratumor vascularization inhibition (factor),"C6 glioma cells; rat, in vivo",six
same,neovascularization inhibition with bFGF instead of aFGF,bFGF,Equivalent results
same,apoptosis index,"glioma C6 cells; continuous infusion 0.2 mg/h, 14 days",very positive
same,corneal neovascularization area,glioma C6 cells; in comparison with the untreated animals,very reduced
same,apoptotic endothelial nuclei (microscopic observation),glioma C6 cells; treated animals,presence of apoptotic endothelial nuclei
same,broken blood vessels (microscopic observation),glioma C6 cells; treated animals,presence of broken blood vessels
same,number of apoptotic bodies (microscopic observation),glioma C6 cells; treated animals,higher number
same,number of glioma C6 cells (microscopic observation),glioma C6 cells; treated animals,lower number
same,toxic death or apparent alterations in the animals,[1],did not cause any toxic death or apparent alterations
same,weight changes,[1],nor did it cause weight changes
same,mitogenesis inductor / tumorigenic effect on quiescent fibroblasts in the absence of aFGF,[2]; absence of aFGF,does not occur
same,toxicity for quiescent fibroblasts,[2],innocuous
same,toxicity for quiescent fibroblasts,[2]; listed as sodium 5-amino-2-naphthalenesulfonate,not toxic
same,neovascularization inhibition,"aFGF [3]; 0.008 mg/kg intraperitoneal, 7 days after implants",already assessable
same,neovascularization inhibition,"aFGF [3]; 0.08 mg/kg intraperitoneal, 7 days after implants",already assessable
same,cellular infiltration in aFGF-soaked sponge implants,"aFGF [3]; 8 mg/kg intraperitoneal, FIG. 2",disappears
same,neovascularization inhibition,aFGF [3]; doses exceeding 0.8 mg/kg intraperitoneal,virtually complete
same,aFGF-induced angiogenic activity inhibition (in words),"aFGF [3]; mouse, in vivo",aFGF-induced angiogenic activity inhibitors
same,"neovascularization inhibition compared with suramines and 1,3,6-NTS","aFGF [3]; mouse, in vivo",considerably more effective neovascularization inhibitor
same,aFGF-induced mitogenic activity inhibition (in words),"aFGF [4]; Balb/c 3T3 fibroblasts, 60 hours, MIHS 20 μg/mL, aFGF 0.32 ng/mL",potent aFGF-induced mitogenic activity inhibitors
same,aFGF-induced mitogenic inhibitory activity compared between compounds (stereochemical guidelines),"aFGF [4]; C-9 and C-17 vs. C-14 and C-18, C-10, C-11, C-13 vs. C-9, 2-NMS vs 1-NMS series",better aFGF-induced mitogenic activity inhibitors
same,IC50 rank among the tested compounds,aFGF [4]; aFGF-induced mitogenesis,second best IC50 value
same,IC50,"aFGF [4]; aFGF-induced mitogenesis, Balb/c 3T3 fibroblasts, read-out: inhibitory activity IC50",265 µM
"O=S(=O)(O)c1ccc2c(S(=O)(=O)O)cc(S(=O)(=O)O)cc2c1 [1,3,6-NTS, 1,3,6-naphthalenetrisulfonic acid]",concentration required to reach substantial neovascularization inhibition,aFGF [5],about 200 mg/kg
same,aFGF-induced angiogenesis and glioma proliferation inhibition (literature),aFGF [6],positive results
same,aFGF-induced mitogenic activity inhibition (literature),aFGF [7],aFGF-induced mitogenic activity inhibitors
